System: HBV
Assay: HBV inhibition assay: anti-HBV activity in vitro in HepG2.2.15 cells (extracellular HBV DNA by qPCR)
Assay type: cell-based
Settings: Hepatitis B virus, 120 h, five days after compound treatment, extracellular HBV DNA in culture supernatant by qPCR, concentration at which HBV replication is inhibited by 50%
Outline: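 HepG2.2.15 cells (stably carrying HBV genome) treated with half-log serially diluted compounds at 0.5% DMSO final for five days. Extracellular HBV DNA in supernatant quantified by qPCR after Proteinase K digestion; EC50 is concentration giving 50% inhibition of replication.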

| Compound | EC50 [nM] |
| --- | --- |
| C[C@H]1Cn2ncc(N3CC(C)(C(=O)N4CCC(F)(F)C4)CC3=O)c2CN1C(=O)Nc1cc(F)c(F)c(F)c1 (stereo partly drawn) [Example 400, (6S)-3-[4-(3,3-difluoropyrrolidine-1-carbonyl)-4-methyl-2-oxo-pyrrolidin-1-yl]-6-methyl-N-(3,4,5-trifluorophenyl)-6,7-dihydro-4H-pyrazolo[1,5-a]pyrazine-5-carboxamide] | 94 |
| O=C(Nc1ccc(F)c(Cl)c1)N1CCn2ncc(C3CCCC3)c2C1 [Example 78, N-(3-chloro-4-fluoro-phenyl)-3-cyclopentyl-6,7-dihydro-4H-pyrazolo[1,5-a]pyrazine-5-carboxamide] | 29 |
| O=C(Nc1ccc(F)cc1)N1CCn2ncc(-c3ccccc3F)c2C1 [Example 33, 3-(2-fluorophenyl)-N-(4-fluorophenyl)-6,7-dihydro-4H-pyrazolo[1,5-a]pyrazine-5-carboxamide] | 85 |
| C[C@H]1Cn2ncc(N3CC(c4ccccc4)NC3=O)c2CN1C(=O)Nc1cc(F)c(F)c(F)c1 (stereo partly drawn) [Example 329, (6S)-6-methyl-3-(2-oxo-4-phenyl-imidazolidin-1-yl)-N-(3,4,5-trifluorophenyl)-6,7-dihydro-4H-pyrazolo[1,5-a]pyrazine-5-carboxamide] | 4 |
| Cc1cc(NC(=O)N2Cc3c(-c4ccc(F)cn4)cnn3CC2C)cc(F)c1F (stereo not shown) [Example 156, N-(3,4-difluoro-5-methyl-phenyl)-3-(5-fluoro-2-pyridyl)-6-methyl-6,7-dihydro-4H-pyrazolo[1,5-a]pyrazine-5-carboxamide] | 25 |
| C#Cc1cc(NC(=O)N2CCn3cnc(-c4ccc(F)cc4F)c3C2)ccc1F [Example 134, 1-(2,4-difluorophenyl)-N-(3-ethynyl-4-fluoro-phenyl)-6,8-dihydro-5H-imidazo[1,5-a]pyrazine-7-carboxamide] | 85 |
| C[C@H]1Cn2ncc(N3CC(C(=O)N4CCCC4)CC3=O)c2CN1C(=O)Nc1cc(F)c(F)c(F)c1 (stereo partly drawn) [Example 391, (6S)-6-methyl-3-[2-oxo-4-(pyrrolidine-1-carbonyl)pyrrolidin-1-yl]-N-(3,4,5-trifluorophenyl)-6,7-dihydro-4H-pyrazolo[1,5-a]pyrazine-5-carboxamide] | 74 |
| Cc1cc(-c2cnn3c2CN(C(=O)Nc2ccc(F)c(Cl)c2)CC3)ncc1F [Example 68, N-(3-chloro-4-fluoro-phenyl)-3-(5-fluoro-4-methyl-2-pyridyl)-6,7-dihydro-4H-pyrazolo[1,5-a]pyrazine-5-carboxamide] | 75 |
| CC1Cn2ncc(-c3ccc(F)cc3)c2CN1C(=O)Nc1cc(F)c(F)c(F)c1 (stereo not shown) [Example 53, 3-(4-fluorophenyl)-6-methyl-N-(3,4,5-trifluorophenyl)-6,7-dihydro-4H-pyrazolo[1,5-a]pyrazine-5-carboxamide] | 34 |
| CO[C@H]1CC(=O)N(c2cnn3c2CN(C(=O)Nc2cc(F)c(F)c(F)c2)[C@@H](C)C3)C1 [Example 378, (6S)-3-[(4S)-4-methoxy-2-oxo-pyrrolidin-1-yl]-6-methyl-N-(3,4,5-trifluorophenyl)-6,7-dihydro-4H-pyrazolo[1,5-a]pyrazine-5-carboxamide] | 28 |
| C[C@H]1Cn2ncc(N3CC4(CC4)C(O)C3=O)c2CN1C(=O)Nc1cc(F)c(F)c(F)c1 (stereo partly drawn) [Example 424, (6S)-3-(7-hydroxy-6-oxo-5-azaspiro[2.4]heptan-5-yl)-6-methyl-N-(3,4,5-trifluorophenyl)-6,7-dihydro-4H-pyrazolo[1,5-a]pyrazine-5-carboxamide] | 44 |
| C[C@H]1Cn2ncc(N3CC(C(F)(F)F)CC3=O)c2CN1C(=O)Nc1ccnc(C(F)F)c1 (stereo partly drawn) [Example 241, (6S)—N-[2-(difluoromethyl)-4-pyridyl]-6-methyl-3-[2-oxo-4-(trifluoromethyl)pyrrolidin-1-yl]-6,7-dihydro-4H-pyrazolo[1,5-a]pyrazine-5-carboxamide] | 75 |
| C[C@H]1Cn2ncc(N3CN(C(=O)c4ccccc4)CC3=O)c2CN1C(=O)Nc1cc(F)c(F)c(F)c1 [Example 275, (6S)-3-(3-benzoyl-5-oxo-imidazolidin-1-yl)-6-methyl-N-(3,4,5-trifluorophenyl)-6,7-dihydro-4H-pyrazolo[1,5-a]pyrazine-5-carboxamide] | 64 |
| Cc1noc(C2(C)CC(=O)N(c3cnn4c3CN(C(=O)Nc3cc(F)c(F)c(F)c3)[C@@H](C)C4)C2)n1 (stereo partly drawn) [Example 405, (6S)-6-methyl-3-[4-methyl-4-(3-methyl-1,2,4-oxadiazol-5-yl)-2-oxo-pyrrolidin-1-yl]-N-(3,4,5-trifluorophenyl)-6,7-dihydro-4H-pyrazolo[1,5-a]pyrazine-5-carboxamide] | 10 |
| C[C@H]1Cn2ncc(N3CC(C)(C)CC3=O)c2CN1C(=O)Nc1ccc(F)c(Cl)c1 [Example 257, (6S)—N-(3-chloro-4-fluoro-phenyl)-3-(4,4-dimethyl-2-oxo-pyrrolidin-1-yl)-6-methyl-6,7-dihydro-4H-pyrazolo[1,5-a]pyrazine-5-carboxamide] | 15 |
| C#Cc1cc(NC(=O)N2CCn3ncc(-c4ccc(F)cc4)c3C2)ccc1F [Example 122, N-(3-ethynyl-4-fluoro-phenyl)-3-(4-fluorophenyl)-6,7-dihydro-4H-pyrazolo[1,5-a]pyrazine-5-carboxamide] | 93 |
| C[C@H]1Cn2ncc(N3CC(c4ncccn4)CC3=O)c2CN1C(=O)Nc1cc(F)c(F)c(F)c1 (stereo partly drawn) [Example 437, (6S)-6-methyl-3-(2-oxo-4-pyrimidin-2-yl-pyrrolidin-1-yl)-N-(3,4,5-trifluorophenyl)-6,7-dihydro-4H-pyrazolo[1,5-a]pyrazine-5-carboxamide] | 6 |
| C[C@H]1Cn2ncc(N3CC(CO)CC3=O)c2CN1C(=O)Nc1ccc(F)c(Cl)c1 (stereo partly drawn) [Example 298, (6S)—N-(3-chloro-4-fluoro-phenyl)-3-[4-(hydroxymethyl)-2-oxo-pyrrolidin-1-yl]-6-methyl-6,7-dihydro-4H-pyrazolo[1,5-a]pyrazine-5-carboxamide] | 104 |
| C[C@H]1Cn2ncc(N3CC[C@H](O)C3=O)c2CN1C(=O)Nc1cc(F)c(F)c(F)c1 [Example 262, (6S)-3-[(3S)-3-hydroxy-2-oxo-pyrrolidin-1-yl]-6-methyl-N-(3,4,5-trifluorophenyl)-6,7-dihydro-4H-pyrazolo[1,5-a]pyrazine-5-carboxamide] | 65 |
| C[C@H]1Cn2ncc(N3CC(N(C)c4ncccn4)CC3=O)c2CN1C(=O)Nc1cc(F)c(F)c(F)c1 (stereo partly drawn) [Example 363, (6S)-6-methyl-3-[4-[methyl(pyrimidin-2-yl)amino]-2-oxo-pyrrolidin-1-yl]-N-(3,4,5-trifluorophenyl)-6,7-dihydro-4H-pyrazolo[1,5-a]pyrazine-5-carboxamide] | 9 |
| C[C@H]1Cn2ncc(N3CC(C)(C)NC3=O)c2CN1C(=O)Nc1ccc(F)c(Cl)c1 [Example 245, (6S)—N-(3-chloro-4-fluoro-phenyl)-3-(4,4-dimethyl-2-oxo-imidazolidin-1-yl)-6-methyl-6,7-dihydro-4H-pyrazolo[1,5-a]pyrazine-5-carboxamide] | 53 |
| O=C(Nc1ccc(F)c(C(F)(F)F)c1)N1CCn2ncc(-c3ccccc3F)c2C1 [Example 34, 3-(2-fluorophenyl)-N-[4-fluoro-3-(trifluoromethyl)phenyl]-6,7-dihydro-4H-pyrazolo[1,5-a]pyrazine-5-carboxamide] | 52 |
